Results from US20150105429A1, “BENZYL SULFONAMIDE DERIVATIVES AS RORC MODULATORS” (Genentech, Inc., priority 2011, published 2015).

Molecular target: T1, RORc ligand binding domain (Homo sapiens, UniProt P51449)
T1 construct: host or cells: E. coli
T1 sequence (P51449 269-508 limits assumed): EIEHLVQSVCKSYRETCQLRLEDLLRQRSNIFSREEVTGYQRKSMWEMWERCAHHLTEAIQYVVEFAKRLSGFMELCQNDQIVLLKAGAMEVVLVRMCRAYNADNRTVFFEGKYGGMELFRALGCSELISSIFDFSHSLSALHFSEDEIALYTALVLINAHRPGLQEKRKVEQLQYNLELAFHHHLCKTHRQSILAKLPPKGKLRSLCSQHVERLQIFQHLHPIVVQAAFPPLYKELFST
Assay: In Vitro RORc Ligand Binding Assay
Conditions: radioligand 25-[3H]hydroxycholesterol 6 nM; 0.6 ug/mL RORc receptor; 3 h at 25° C.; read-out: IC50 values (micromolar) for RORc affinity
Method: This assay was used to determine a compound's potency in inhibiting activity of RORc by determining, Kiapp, IC50, or percent inhibition values.
On day of the assay, 100 uL of 0.05% CHAPS (in deionized H2O) was added to all wells of the GFB Unifilter plate and allowed soak for 1 h. A wash buffer of 50 mM HEPES (pH 7.4), 150 mM NaCl, and 5 mM MgCl2 was prepared to wash the filter plate. To prepare an assay buffer, BSA was added to the wash buffer to reach 0.01% and DTT was added to reach 1 mM.
The 20× compound stocks were diluted in DMSO with Assay Buffer 4-fold to reach 5× the final test concentration in 25% DMSO (10 uL compound+30 uL Assay Buffer). Solutions were mixed by aspiration several times with a pipette set on 50 uL volume. For the assay, 10 uL of 5× compound stock solutions in 25% DMSO were added to the assay plate in duplicate.
For two point screening, 10 mM stock compound solutions were diluted in DMSO to obtain 200 uM (20× the high test concentration) and then diluted 10-fold further to reach 20 uM (20× the low test concentration). The 20× stocks were diluted 4-fold with Assay Buffer (10 uL compound+30 uL Assay Buffer) to reach 5× the test concentrations (50 uM and 5 uM) and 10 uL were added to two assay plates for the duplicate wells. With each concentration tested on 2 plates, each set of 80 compounds used 4 assay plates (1 uM and 10 uM, with n=2).
For 25-hydroxycholesterol in 25% DMSO/75% Assay Buffer; 10 uL per well was used for NSB samples. Wells for Total Binding and No Receptor sample determination contained 10 uL of 25% DMSO/75% Assay Buffer per well.
Radioligand (25-[^3H]hydroxycholesterol) Preparation
Added 20 uL to all wells to reach 6 nM final in the assay.
Stock receptor solution was diluted in assay buffer to obtain 1.5 ug/mL in Assay Buffer. 20 uL was added to all wells. For No R samples, 20 uL Assay Buffer was substituted for receptor solution.
Assay plates were 96-well polypropylene V-bottom plates. 10 uL of 5× compound in 25% DMSO/75% Assay Buffer was added to Test wells. 10 uL of 25% DMSO/75% Assay Buffer was added to Total Binding or No Receptor wells. 10 uL of 5 uM 25-hydroxycholesterol in 25% DMSO/75% Assay Buffer was added to NSB wells. […] 20 uL of 1.5 ug/mL RORc receptor was added to wells (or 40 uL Assay Buffer to No R wells). Following addition to the wells, the plates were incubated 3 h at 25° C.
Using a Packard Filtermate Harvester, the filter plates were washed 4 times following transfer of the incubated samples. Plates were dry-filtered completely (2 h at 50° C. or overnight at room temperature). 50 uL Microscint 0 was added to all wells and read on Topcount protocol Inverted.
Final concentrations were as follows: 50 mM HEPES buffer (pH 7.4); 150 mM NaCl; 1 mM DTT; 5 mM MgCl2; 0.01% BSA; 5% DMSO; 0.6 ug/mL RORc receptor; 6 nM 25-[^3H]hydroxycholesterol. For NSB wells, 1 uM 25-hydroxycholesterol was also present.

| Compound | IC50 [µM] |
| --- | --- |
| CS(=O)(=O)c1cccc(-c2ccc(CN(Cc3ccc(F)cc3Cl)S(=O)(=O)Cc3ccccc3)cc2)c1 [Compound 2, N-(2-Chloro-4-fluoro-benzyl)-N-(3′-methanesulfonyl-biphenyl-4-ylmethyl)-C-phenyl-methanesulfonamide] | 2.8 |
| Cc1nn(C)c(C)c1-c1ccc(CN(CC(C)C)S(=O)(=O)Cc2ccccc2)cc1 [Compound 3, N-Isobutyl-C-phenyl-N-[4-(1,3,5-trimethyl-1H-pyrazol-4-yl)-benzyl]-methanesulfonamide] | 1.7 |
| Cc1n[nH]c(C)c1-c1ccc(CN(CC(C)C)S(=O)(=O)Cc2ccccc2)cc1 [Compound 10, N-[4-(3,5-Dimethyl-1H-pyrazol-4-yl)-benzyl]-N-isobutyl-C-phenyl-methanesulfonamide] | 2.8 |
| CC(C)CN([C@H](C)c1ccc(-c2ccc(S(C)(=O)=O)cc2)cc1)S(=O)(=O)Cc1ccccc1 [Compound 21, N-Isobutyl-N-[(R)-1-(4′-methanesulfonyl-biphenyl-4-yl)-ethyl]-C-phenyl-methanesulfonamide] | 2.9 |
| CC(C)CN(Cc1ccc(-c2cccc(S(C)(=O)=O)c2)s1)S(=O)(=O)c1ccccc1C#N [Compound 27, 2-Cyano-N-isobutyl-N-[5-(3-methanesulfonyl-phenyl)-thiophen-2-ylmethyl]-benzenesulfonamide] | 3.7 |
| CC(C)CN(Cc1ccc(-c2cccc(S(C)(=O)=O)c2)s1)S(=O)(=O)Cc1ccccc1F [Compound 29, C-(2-Fluoro-phenyl)-N-isobutyl-N-[5-(3-methanesulfonyl-phenyl)-thiophen-2-ylmethyl]-methanesulfonamide] | 1.5 |
| CC(C)CN(Cc1ccc(-c2cccc(S(C)(=O)=O)c2)s1)S(=O)(=O)Cc1ccc(F)cc1 [Compound 30, C-(4-Fluoro-phenyl)-N-isobutyl-N-[5-(3-methanesulfonyl-phenyl)-thiophen-2-ylmethyl]-methanesulfonamide] | 1.4 |
| CC(C)CN(Cc1ccc(-c2cccc(S(C)(=O)=O)c2)s1)S(=O)(=O)Cc1cccc(F)c1 [Compound 31, C-(3-Fluoro-phenyl)-N-isobutyl-N-[5-(3-methanesulfonyl-phenyl)-thiophen-2-ylmethyl]-methanesulfonamide] | 1.3 |
| Cc1n[nH]c(C)c1S(=O)(=O)N(Cc1ccc(-c2cccc(S(C)(=O)=O)c2)s1)CC(C)C [Compound 32, 3,5-Dimethyl-1H-pyrazole-4-sulfonic acid isobutyl-[5-(3-methanesulfonyl-phenyl)-thiophen-2-ylmethyl]-amide] | 2.5 |
| CC(C)CN(Cc1ccc(-c2cccc(S(C)(=O)=O)c2)s1)S(=O)(=O)c1cccc(C#N)c1 [Compound 33, 3-Cyano-N-isobutyl-N-[5-(3-methanesulfonyl-phenyl)-thiophen-2-ylmethyl]-benzenesulfonamide] | 2.4 |
| CC(C)CN(Cc1ccc(-c2cccnc2)s1)S(=O)(=O)Cc1ccccc1 [Compound 37, N-Isobutyl-C-phenyl-N-(5-pyridin-3-yl-thiophen-2-ylmethyl)-methanesulfonamide] | 1.7 |

Stronger by IC50, values ahead:

| IC50 [µM] | Compound |
| --- | --- |
| 0.963 | CC(C)CN(Cc1ccc(-c2ccc(C(=O)N(C)C)cc2)cc1)S(=O)(=O)Cc1ccccc1 [Compound 5, 4′-[(Isobutyl-phenylmethanesulfonyl-amino)-methyl]-biphenyl-4-carboxylic acid dimethylamide] |
| 0.696 | CC(C)CN([C@H](C)c1ccc(-c2ccc(NS(C)(=O)=O)cc2)cc1)S(=O)(=O)Cc1ccccc1 [Compound 15, N-Isobutyl-N-[(R)-1-(4′-methanesulfonylamino-biphenyl-4-yl)-ethyl]-C-phenyl-methanesulfonamide] |
| 0.691 | CC(C)CN([C@@H](C)c1ccc(-c2cccc(S(C)(=O)=O)c2)cc1)S(=O)(=O)Cc1ccccc1 [Compound 19, N-Isobutyl-N-[(S)-1-(3′-methanesulfonyl-biphenyl-4-yl)-ethyl]-C-phenyl-methanesulfonamide] |
| 0.598 | CCn1cc(-c2ccc(CN(CC(C)C)S(=O)(=O)Cc3ccccc3)s2)cn1 [Compound 36, N-[5-(1-Ethyl-1H-pyrazol-4-yl)-thiophen-2-ylmethyl]-N-isobutyl-C-phenyl-methanesulfonamide] |
| 0.476 | CC(C)CN(Cc1ccc(-c2cccc(S(C)(=O)=O)c2)s1)S(=O)(=O)c1ccccc1 [Compound 28, N-Isobutyl-N-[5-(3-methanesulfonyl-phenyl)-thiophen-2-ylmethyl]-benzenesulfonamide] |
| 0.365 | CC(C)CN(Cc1ccc(-c2cccc(S(C)(=O)=O)c2)cc1)S(=O)(=O)Cc1ccccc1 [Compound 1, N-Isobutyl-N-(3′-methanesulfonyl-biphenyl-4-ylmethyl)-C-phenyl-methanesulfonamide] |
| 0.282 | O=S(=O)(Cc1ccccc1)N(Cc1ccc(-c2ccncc2)cc1F)CC(F)(F)F [Compound 23, N-(2-Fluoro-4-pyridin-4-yl-benzyl)-C-phenyl-N-(2,2,2-trifluoro-ethyl)-methanesulfonamide] |
| 0.251 | CC(C)CN([C@@H](C)c1ccc(-c2ccc(NS(C)(=O)=O)cc2)cc1)S(=O)(=O)Cc1ccccc1 [Compound 20, N-Isobutyl-N-[(S)-1-(4′-methanesulfonylamino-biphenyl-4-yl)-ethyl]-C-phenyl-methanesulfonamide] |
| 0.188 | CC(C)CN(Cc1ccc(-c2cccc(S(C)(=O)=O)c2)s1)S(=O)(=O)c1cccc(Cl)c1 [Compound 26, 3-Chloro-N-isobutyl-N-[5-(3-methanesulfonyl-phenyl)-thiophen-2-ylmethyl]-benzenesulfonamide] |
| 0.168 | CC(C)CN([C@@H](C)c1ccc(-c2ccc(S(C)(=O)=O)cc2)cc1)S(=O)(=O)Cc1ccccc1 [Compound 18, N-Isobutyl-N-[(S)-1-(4′-methanesulfonyl-biphenyl-4-yl)-ethyl]-C-phenyl-methanesulfonamide] |
| 0.154 | CC(C)CN([C@@H](C)c1ccc(-c2ccc(C(N)=O)cc2)cc1)S(=O)(=O)Cc1ccccc1 [Compound 17, 4′-[(S)-1-(Isobutyl-phenylmethanesulfonyl-amino)-ethyl]-biphenyl-4-carboxylic acid amide] |
| 0.128 | CC(C)CN([C@H](C)c1ccc(-c2ccc(C(N)=O)cc2)cc1)S(=O)(=O)Cc1ccccc1 [Compound 14, 4′-[(R)-1-(Isobutyl-phenylmethanesulfonyl-amino)-ethyl]-biphenyl-4-carboxylic acid amide] |
| 0.065 | CNS(=O)(=O)c1ccc(-c2ccc(CN(CC(C)C)S(=O)(=O)Cc3ccccc3)cc2)cc1 [Compound 9, 4′-[(Isobutyl-phenylmethanesulfonyl-amino)-methyl]-biphenyl-4-sulfonic acid methylamide] |
| 0.057 | Cc1cc(-c2ccc(S(C)(=O)=O)cc2)ccc1CN(CC(C)C)S(=O)(=O)Cc1ccccc1 [Compound 25, N-Isobutyl-N-(4′-methanesulfonyl-3-methyl-biphenyl-4-ylmethyl)-C-phenyl-methanesulfonamide] |
| 0.019 | CC(C)CN(Cc1ccc(-c2ccc(S(C)(=O)=O)cc2)cc1F)S(=O)(=O)Cc1ccccc1 [Compound 22, N-(3-Fluoro-4′-methanesulfonyl-biphenyl-4-ylmethyl)-N-isobutyl-C-phenyl-methanesulfonamide] |
| 0.011 | Cc1cc(CN(CC(C)C)S(=O)(=O)Cc2ccccc2)ccc1-c1ccc(S(C)(=O)=O)cc1 [Compound 24, N-Isobutyl-N-(4′-methanesulfonyl-2-methyl-biphenyl-4-ylmethyl)-C-phenyl-methanesulfonamide] |
